These results are taken from paper PMC12311895, “Single-Molecule Protein Interactions and Unfolding Revealed by Plasmon-Enhanced Fluorescence” (Analytical Chemistry, 2025).

Test [1] deals with T1, Erbin PDZ (MBP-PDZ immobilized on gold nanorods via DNA) (Homo sapiens, UniProt Q96RT1).
T1 construct: Since neither the utilized PDZ domain nor MBP contains natural cysteines; single introduced cysteine in the linker between MBP and PDZ (handle for DNA coupling); host or cells: E. coli BL21(DE3)
Kind of test: single-molecule plasmon-enhanced fluorescence binding kinetics of PDZ-peptide interaction.

The nature of test [2]: unspecific binding of labeled peptide to DNA-coated gold nanoparticles without protein (negative control). As to conditions: DNA decorated, 0 proteins per particle; 60 ms exposure, 1 nM labeled peptide in PBS. The source says: 2 Characterization of the PDZ-peptide binding interactions. (A) Typical microcopy FOV of the immobilized gold nanoparticles. Each FOV (∼ 43 μm by 43 μm) typically contains around 100 stochastically immobilized particles, yielding average interparticle distances of several micrometers. A time trace of one of the gold nanoparticles is shown, on which the peptide–protein binding events can be seen as fluorescence bursts. An expanded region of the time trace showcases a few examples of individual bright-times and dark-times. (B) Typical signals obtained from peptide binding on a gold nanorod (blue) and on the glass (red). (C) Plot depicting the distribution of bright times (bound-state lifetimes) of the protein-peptide interactions, based on all recorded particles. […]
In order to quantify association kinetics and related particle-to-particle differences, analysis is based on the average dark time (t d ) in between events (unbound-state lifetime). […] The binding event frequency’s dependency on the number of proteins per particle was assessed through several measurements, using particle preparations with different average numbers of proteins per particle (Figure .D). […] Dim fluorescence signals that would have been lost in unenhanced studies can now readily be detected, giving rise to more accurate event detection, and thus, a more representative k on value.

Test [3] deals with PDZ directly conjugated to gold nanorods. Kind of test: peptide binding to PDZ conjugated directly to gold nanorods via a cysteine linker. As to conditions: direct conjugation to gold nanorods via cysteine linker, no DNA. The source says: In this study we utilize single-crystalline GNPs (nanorods) to probe protein–protein interactions at the single-molecule level. To facilitate single-molecule studies the particles are immobilized onto a glass coverslip to enable the imaging of single nanoparticles. Before immobilization, we conjugated protein (PDZ) to the nanoparticles using a solution-phase protocol. We initially tried direct conjugation of PDZ to the gold nanorods via a cysteine linker. […] We then developed a DNA-mediated conjugation approach. This approach, through the rigid nature of double-stranded DNA, allows for control over the time-average distance between the proteins and the GNPs. This controlled distance is crucial, as it prevents a direct interaction between the protein and the gold, thereby preventing denaturation. Moreover, it still allows the proteins to be placed close to the gold nanorods, which facilitates potent fluorescence enhancement of the fluorescently labeled binding partners (Supplementary Figure 1).

Another test relates to PDZ. As to conditions: reference number not printed at place (probably ref 20), cited from earlier work. From the text:
From a double-exponential fit we extracted characteristic bound-state lifetimes of 16 ± 1 and 83 ± 16 ms, corresponding to k off values of 61 ± 5 and 12 ± 3 s^–1. The slow dissociation rate constant is similar to previously reported values for the same interaction with immobilized peptides (k off ≈ 6.3 s^–1). […] The underlying molecular mechanism leadi ... || In order to quantify association kinetics and related particle-to-particle differences, analysis is based on the average dark time (t d ) in between events (unbound-state lifetime). Together with the number of proteins per particle (n), and the concentration of the labeled peptide solution (c i ), it follows that kon=1/tdcin . The binding event frequency’s dependency on the number of proteins per particle was assessed through several measurements, using particle preparations with different average numbers of proteins per particle (Figure .D). Herein, a control sample (DNA decorated, 0 proteins ...

Test [4] deals with PDZ (MBP-PDZ immobilized on gold nanorods). Kind of test: urea-mediated unfolding/refolding of immobilized PDZ, read out by peptide binding kinetics. It is filed as biochemical. From the text:
Next, we employed the platform to monitor protein unfolding and refolding. […] After validating that the observed event rate decrease was not caused by protein dissociation from the GNPs (Supplementary Figure 8), we next characterized the concentration dependency of this urea-mediated PDZ unfolding (Figure B). The protein-peptide binding frequency, and thus PDZ conformational integrity, clearly decreases in a urea concentration-dependent manner.
3 Urea-mediated PDZ denaturation. […] (B) Left/blue data points: PDZ-peptide binding event frequencies at different urea concentrations. To prevent cumulative and/or time-mediated influences, measurements at each concentration were performed with a fresh sample. Error bars represent the effect of each sample’s Poisson distribution of the number of proteins per particle on the average binding frequencies. Right/green data points: PDZ-peptide binding event frequencies of a similar sample, after incubation at 6.4 M urea and subsequent removal thereof. (C) Bright-time distribution of the PDZ-peptide binding events at different urea concentrations. […] The 95% confidence interval is obtained by propagating 1.96 SE of the corresponding tb fits.
5 minute steps at 5000 rpm each). After each centrifugation step, supernatants were discarded, and pellets were re-dissolved (200 µL of 25 mM HEPES (pH 7.4) after the first spin step, 200 µL of milliQ after step 2 and 3, and 150 µL of 10 mM HEPES (pH 7.4) + 0.0025 w/v% Tween20 + 1 mM MgCl2 after step 4.
For each reaction, 5.0 µL of protein-DNA conjugate was added to a 150 µL particle solution as prepared above. Added protein-DNA concentrations varied from 250 pM to 2 µM depending on the desired number of proteins per particle.
Reactions were either incubated for 2 hours at room temperature (~21 °C), or overnight in the fridge (4 °C). After incubation, 1.5 µL of 20 w/v% BSA in PBS was added to each sample, following an additional 15 minutes of incubation.
Next, samples were washed using 4 centrifugal steps (5 minutes at 5000 rpm and 4 °C each). After each spin step, supernatants were removed, and particles were re-suspended using 10 mM HEPES pH 7.4, 0.0025 w/v% Tween20, 1 mM MgCl2, 0.2 w/v% BSA (150 µL after step 1-3, 75 µL after step 4).
Functionalized gold nanoparticle concentrations were determined through absorption measurements on a Thermo Scientific Nanodrop 2000 apparatus. Fluorescence spectroscopy-based protein quantifications were performed through fluorescence measurements on a Varioskan Lux platereader (500 nm excitation, 12nm bandwidth, low dynamic range, […]
Sample preparation for microscopy measurements
Glass microscopy slides (Menzel #1.5 24*40 mm) were sonicated in MeOH for 15 minutes, and blown dry using nitrogen gas afterwards. Next, slides were plasma treated for 1 minute. Imaging spacer stickers were added to the cleaned glass slides. Particles were diluted to OD = 0.1 (at 650 nm, 1 cm pathlength) in PBS, and for each sample 50 µL was pipetted into the imaging spacer. Samples were incubated for at least 5 minutes, after which the majority of particles were firmly immobilized. Depending on the measurement, samples were used as described, or briefly washed with PBS (unfolding/refolding measurements).
Fluorescence microscopy measurements
Samples were measured through fluorescence microscopy. The utilized setup’s main components consi sted of a Coherent OBIS 637 nm laser, Nikon eclipse Ti2 microscope body, Apo TIRF 60x 1.49 NA DIC N2 Oil objective, and Prime BSI Express CMOS camera. All measurements were performed using TIRF illumination. Sample and imaging conditions […]
Table S.2. Sample and imaging conditions per experiment.
Experiment/associated Laser power (mW): Exposure (ms): Labeled peptide
Figure(s): concentration (nM):
Kinetic analysis – 50 20 1 dissociation kinetics. Figure
Kinetic analysis: association 50 60 1 […]
Peptide and urea solutions were all prepared in PBS. […]

Test [5] relates to ATTO 532-PDZ decorated gold nanoparticles. Briefly: stability of GNP-protein conjugate to urea (fluorescence of ATTO 532-PDZ on particles). As to conditions: 4 M urea, 15 minutes, then exchanged for PBS; five particles, 532 nm laser. As for the experimental part:
Supplementary Figure 7. Fluorescence polarization curve of the interaction between MBP-PDZ (no DNA attached) ௣ ) + Aଶ , yields a Kd (x0) of 0.2 µM (p set to 1 and ATTO 655-labeled peptide. The fit (y =((Aଵ −Aଶ )/(1 + ቀ[௣௥௢௧௘௜௡ ]௄೏ ቁ to represent 1:1 binding). Measurement performed with 10 nM peptide in 10 mM HEPES pH 7.4, 150 mM NaCl, 0.1 v/v% Tween 20, 0.1 w/v% BSA, 1 mM DTT.
Supplementary Figure 8. Mean fluorescence intensities of five ATTO 532- PDZ decorated gold nanoparticles before and after exposure to 4 M urea. Immobilized particles were briefly imaged with a 532 nm laser before exposure to urea, with bare PBS in the bulk solution. Next, the laser was turned off, urea was added towards 4 M, and the sample was incubated for 15 minutes. Afterwards, the urea solution was exchanged for fresh PBS, the laser turned on, and fluorescence intensities measured again.
ATTO 532-labeled PDZ proteins remained on the particles.
(also on this page, place not known: inte raction =( (Aଵ −A ଶ)/(1 ቀ [௣௥௢௧௘௜௡] ௄೏ 350Polarization (mP) P1, before P1, after P2, before P2, after P3, before P3, after P4, before P4, after P5, before P5, after 8000Mean fluorescence intensity (counts))

T1 sequence (Q96RT1 1321-1410 limits assumed): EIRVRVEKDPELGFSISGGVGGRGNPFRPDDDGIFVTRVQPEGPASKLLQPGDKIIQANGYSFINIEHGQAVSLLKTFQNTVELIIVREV

“H-[C(ATTO655)]GAGRGSIDTWV-OH [ATTO 655-labeled peptide, Atto-655 labeled peptide purchased from SB Peptide]”: the “distribution of bound-state lifetimes” value in test [1] (all particles (Figure 2C), also on single particles (Supplementary Figure 6)) was “double exponential”. Also, in test [1] (double-exponential fit of bright times, all recorded particles, 20 ms exposure, 50 mW 637 nm laser, TIRF, 1 nM labeled peptide in PBS), the “characteristic bound-state lifetime, short component” value amounted to 16 ± 1 ms. Also, the “characteristic bound-state lifetime, long component” value in test [1] (double-exponential fit of bright times, all recorded particles, 20 ms exposure, 50 mW 637 nm laser, TIRF, 1 nM labeled peptide in PBS, less frequent events) stood at 83 ± 16 ms. Besides, the k on entry in test [1] (linear fit of event frequency vs average number of proteins per particle, kon=1/tdcin, 60 ms exposure, 50 mW, 1 nM labeled peptide in PBS) was “(1.2 ± 0.1) × 10^7 M^–1 s^–1”. Also, in test [1] (linear fit, intercept 0, 60 ms exposure, 1 nM labeled peptide in PBS), the “slope of binding event frequency vs number of proteins per particle” value is recorded as 12 mHz/protein. Also, the “event frequency on control particles (unspecific binding)” value in test [2] came to 2 mHz. Moreover, the “peptide binding of directly conjugated PDZ” value in test [3] is “no peptide binding”. In addition, the “k on (previously reported)” value in the test on PDZ (PAINT experiments) is recorded as “≈ 3.6 × 10^5 M^–1 s^–1”. The “k off (previously reported)” value in the test with PDZ (same interaction with immobilized peptides, integration time 60 ms) is recorded as “≈ 6.3 s^–1”.
As for `NC(N)=O` [urea], the “average PDZ-peptide binding event frequency at 0.2 M urea” value in test [4] (0.2 M urea, 2 nM labeled peptide in PBS, within Poisson distribution) is listed as “slight increase”. In addition, the “time for refolding of PDZ after urea removal” value in test [4] (after 6.4 M urea, time required for fluid exchange and initiation of imaging) is reported as no more than 1 min. In addition, in test [4] (based on dominant short lifetimes of double exponential fits, 2 nM labeled peptide in PBS, 40 ms exposure), the “k off values at different urea concentrations” value is given as “no significant deviations”. Further, the “bound-state lifetimes for increasing urea concentrations” value in test [4] (bright time distributions, 2 nM labeled peptide in PBS, 40 ms exposure) was “did not significantly change”. Moreover, in test [4] (pre-incubation with 6.4 M urea for 20 minutes, then washed, 2 nM labeled peptide in PBS), the “PDZ-peptide binding frequency after removal of urea (refolding)” value is “recovered toward initial levels”. For the same molecule, the “occurrence of PDZ-peptide interactions at 4.0 M urea” value in test [4] (time traces of a particle before and after 4.0 M urea, 2 nM labeled peptide in PBS) is given as “terminates the occurrence of PDZ-peptide interactions”. Also, the “fluorescence intensity of ATTO 532-PDZ decorated particles after urea exposure” value in test [5] was “no reduced fluorescence intensities”.
